In PubChem BioAssay AID200 (DTP/NCI, 2004) one finds T/C data, which are given here for 16 compounds.

Values joined by “and” are separate entries in the source; they are usually repeats but may differ in a detail not shown here. Equal entries are not always repeated. Toxic doses and inconclusive results are not listed. *1 amine or outer side, *2 acyl side, *3 side chain or, on linkers, in order; H or OH if unused. Where a SMILES comes first, the peptide text is derived from it. Bridges are numbered along the chain shown (N, C = ends). Roman numbers before positions name the chains, in order. [ ]: non-standard residue; d: D form. The star is where a group is joined. Actinocin(9to1) = Cc1c2oc3c(C)ccc(C(=O)[*:1])c3nc-2c(C(=O)[*:2])c(N)c1=O; Cbz = O=C(OCc1ccccc1)*; NMeA = CN[CH](C)C(=O)O; Nva = CCC[CH](N)C(=O)O; Sar = CNCC(=O)O; For = O=C*

The subject of the assay is B6C3F1 mice, B16 melanoma ip, median survival T/C. Kind of assay: NCI In Vivo Anticancer Drug Screen. Data for tumor model B16 Melanoma (intraperitoneal) in B6C3F1 mice. Particulars: endpoint: median survival time, higher = longer survival. The essentials:
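Mice bearing transplanted tumor were dosed with compound or vehicle, and survival was recorded. Activity is expressed as the treated-group measurement (T) divided by the vehicle control measurement (C).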

Where [1] appears, read: dose: 25.0 mg/kg/injection, schedule: Q01DX009 (ip), vehicle: saline with Tween-80.
[2] abbreviates: dose: 50.0 mg/kg/injection, schedule: Q01DX009 (ip), vehicle: saline with Tween-80.
Setting [3] is: dose: 100.0 mg/kg/injection, schedule: Q01DX009 (ip), vehicle: saline with Tween-80.
The mark [4] stands for this setting: dose: 200.0 mg/kg/injection, schedule: Q01DX009 (ip), vehicle: saline with Tween-80.
Setting [5] is: dose: 25.0 mg/kg/injection, schedule: Q01DX009 (ip), vehicle: Klucel (hydroxypropylcellulose) (HPC).
[6] abbreviates: dose: 50.0 mg/kg/injection, schedule: Q01DX009 (ip), vehicle: Klucel (hydroxypropylcellulose) (HPC).
Setting [7] is: dose: 100.0 mg/kg/injection, schedule: Q01DX009 (ip), vehicle: Klucel (hydroxypropylcellulose) (HPC).
Where [8] appears, read: dose: 200.0 mg/kg/injection, schedule: Q01DX009 (ip), vehicle: Klucel (hydroxypropylcellulose) (HPC).
[9] abbreviates: dose: 12.5 mg/kg/injection, schedule: Q01DX009 (ip), vehicle: saline with Tween-80.
The mark [10] stands for this setting: dose: 16.0 mg/kg/injection, schedule: Q01DX009 (ip), vehicle: saline with Tween-80.
[11] abbreviates: dose: 1.0 mg/kg/injection, schedule: Q01DX009 (ip), vehicle: saline with Tween-80.
The mark [12] stands for this setting: dose: 4.0 mg/kg/injection, schedule: Q01DX009 (ip), vehicle: saline with Tween-80.
[13] abbreviates: dose: 8.0 mg/kg/injection, schedule: Q01DX009 (ip), vehicle: saline with Tween-80.
Where [14] appears, read: dose: 400.0 mg/kg/injection, schedule: Q01DX009 (ip), vehicle: Klucel (hydroxypropylcellulose) (HPC).

Consider `C[CH2][Sn]([CH2]C)([CH2]C(=O)OC)[CH2]C(=O)OC`, for which the T/C runs as follows: (dose: 1.56 mg/kg/injection, schedule: Q01DX009 (ip), vehicle: saline with Tween-80) 95 % of control; (dose: 3.12 mg/kg/injection, schedule: Q01DX009 (ip), vehicle: saline with Tween-80) 107 % of control; (dose: 6.25 mg/kg/injection, schedule: Q01DX009 (ip), vehicle: saline with Tween-80) 90 % of control.
Take `N#CCS(=O)(=O)c1cccc[n+]1[O-]`: the T/C reads like this: under setting [1], 102 % of control; under setting [2], 101 % of control; under setting [3], 117 % of control; under setting [4], 121 % of control.
Take `CC(=O)Nc1ccc(N=Nc2c(C)nn(C(=N)N)c2C)cc1`: the T/C by setting is: (dose: 3.12 mg/kg/injection, schedule: Q01DX009 (ip), vehicle: saline) 103 % of control; (dose: 6.25 mg/kg/injection, schedule: Q01DX009 (ip), vehicle: saline) 99 % of control; (dose: 12.5 mg/kg/injection, schedule: Q01DX009 (ip), vehicle: saline) 105 % of control; (dose: 25.0 mg/kg/injection, schedule: Q01DX009 (ip), vehicle: saline) 95 % of control; (dose: 50.0 mg/kg/injection, schedule: Q01DX009 (ip), vehicle: saline) 101 % of control.
As to `O=C(NC(CSSCC(NC(=O)OCc1ccccc1)C(=O)O)C(=O)O)OCc1ccccc1` (stereo not given), the T/C by setting is: under setting [5], 104 % of control; under setting [6], 94 % of control; under setting [7], 102 % of control; under setting [8], 88 % of control.
With `CCOC(=O)N1CCN(CCCCCOc2ccccc2C2CCCCC2)CC1`, the T/C reads like this: under setting [9], 108 % of control; under setting [1], 96 % of control; under setting [2], 87 % of control.
As to `Cc1[nH]ccc(=O)c1O`, the T/C by setting is: under setting [10], 103 % of control; (dose: 32.0 mg/kg/injection, schedule: Q01DX009 (ip), vehicle: saline with Tween-80) 103 % of control; (dose: 64.0 mg/kg/injection, schedule: Q01DX009 (ip), vehicle: saline with Tween-80) 109 % of control; (dose: 128.0 mg/kg/injection, schedule: Q01DX009 (ip), vehicle: saline with Tween-80) 111 % of control; (dose: 256.0 mg/kg/injection, schedule: Q01DX009 (ip), vehicle: saline with Tween-80) 118 % of control.
For `N#CCCN(C(=S)Nc1cccc(C(F)(F)F)c1)C1CCCCC1`, the T/C by setting is: (dose: 12.5 mg/kg/injection, schedule: Q01DX009 (ip), vehicle: suspension in saline) 102 % of control; (dose: 25.0 mg/kg/injection, schedule: Q01DX009 (ip), vehicle: suspension in saline) 100 % of control; (dose: 50.0 mg/kg/injection, schedule: Q01DX009 (ip), vehicle: suspension in saline) 101 % of control; under setting [3], 113 % of control; (dose: 100.0 mg/kg/injection, schedule: Q01DX009 (ip), vehicle: suspension in saline) 107 % of control; under setting [4], 94 % of control. Further, the T/C by setting is: (dose: 200.0 mg/kg/injection, schedule: Q01DX009 (ip), vehicle: suspension in saline) 113 % of control; (dose: 400.0 mg/kg/injection, schedule: Q01DX009 (ip), vehicle: saline with Tween-80) 89 % of control; (dose: 400.0 mg/kg/injection, schedule: Q01DX009 (ip), vehicle: suspension in saline) 103 % of control.
In the case of `CC(C)(C)OC(=O)NC(Cc1ccccc1)C(=O)O` (stereo not given), the T/C under setting [6] is 104 % of control, the T/C under setting [7] was 88 % of control and the T/C under setting [8] is 100 % of control.
With `O=C(Nc1cc(Cl)ccc1C(=O)O)c1cccc(C[n+]2ccccc2)c1`, the T/C is 101 % of control under setting [1], 94 % of control under setting [2] and 94 % of control under setting [3].
Turning to `CCCCCCCC(=O)N/N=C(\CO)[C@]1(O)Cc2c(O)c3c(c(O)c2[C@@H](OC2CC(N)C(O)C(C)O2)C1)C(=O)c1c(OC)cccc1C3=O` (stereo not given in full), the T/C was 154 % of control (dose: 1.5 mg/kg/injection, schedule: Q01DX009 (ip), vehicle: saline); 171 % of control (dose: 1.5 mg/kg/injection, schedule: Q01DX009 (ip), vehicle: water); 196 % of control (dose: 3.0 mg/kg/injection, schedule: Q01DX009 (ip), vehicle: saline); 199 % of control (dose: 3.0 mg/kg/injection, schedule: Q01DX009 (ip), vehicle: water); 216 % of control (dose: 6.0 mg/kg/injection, schedule: Q01DX009 (ip), vehicle: saline); 320 % of control (dose: 6.0 mg/kg/injection, schedule: Q01DX009 (ip), vehicle: water). In addition, the T/C reads like this: (dose: 12.0 mg/kg/injection, schedule: Q01DX009 (ip), vehicle: saline) 208 % of control; (dose: 12.0 mg/kg/injection, schedule: Q01DX009 (ip), vehicle: water) 320 % of control; (dose: 24.0 mg/kg/injection, schedule: Q01DX009 (ip), vehicle: saline) 208 % of control.
Take `CN(C)CCN1C(=O)c2cccc3cc(N)cc(c23)C1=O`: the T/C under setting [11] was 113 % of control and 102 % of control; the T/C (dose: 2.0 mg/kg/injection, schedule: Q01DX009 (ip), vehicle: acid diluted with saline) is 97 % of control; the T/C (dose: 2.0 mg/kg/injection, schedule: Q01DX009 (ip), vehicle: saline with Tween-80) is 101 % of control and 102 % of control; the T/C (dose: 4.0 mg/kg/injection, schedule: Q01DX009 (ip), vehicle: acid diluted with saline) was 106 % of control; the T/C under setting [12] is 112 % of control and 113 % of control and 120 % of control; the T/C (dose: 8.0 mg/kg/injection, schedule: Q01DX009 (ip), vehicle: acid diluted with saline) is 111 % of control. Also, the T/C is 116 % of control and 118 % of control and 120 % of control under setting [13]; 110 % of control (dose: 16.0 mg/kg/injection, schedule: Q01DX009 (ip), vehicle: acid diluted with saline); 87 % of control under setting [10].
On to `CSCCC(NC=O)C(=O)NC(C(=O)O)C(C)C` (stereo not drawn) (For-Met-Val-OH; configuration not given here), for which the T/C reads like this: under setting [5], 101 % of control; under setting [6], 101 % of control; under setting [7], 107 % of control; under setting [8], 105 % of control; under setting [14], 98 % of control.
With `CCCC(NC(=O)OCc1ccccc1)C(=O)NC(CO)C(=O)O` (stereo not given) (Cbz-[Nva]-Ser-OH; configuration not given here), the T/C is 102 % of control under setting [7], 100 % of control under setting [8] and 103 % of control under setting [14].
Regarding `COC(C(=O)C(O)C(C)O)C1CC2C=C3C=C(OC4CC(OC5CC(O)C(OC)C(C)O5)C(OC(C)=O)C(C)O4)C(C)C(=O)C3=C(O)C2=C(O)C1OC1CC(OC2CC(OC3CC(C)(O)C(O)C(C)O3)C(O)C(C)O2)C(O)C(C)O1` (stereo not given), the T/C is 109 % of control (dose: 0.25 mg/kg/injection, schedule: Q01DX009 (ip), vehicle: saline with Tween-80); 120 % of control (dose: 0.5 mg/kg/injection, schedule: Q01DX009 (ip), vehicle: saline with Tween-80); 120 % of control under setting [11]; 178 % of control under setting [12]; 178 % of control under setting [13].
In the case of `O=C(Nc1nncs1)c1cccs1`, the T/C under setting [9] is 110 % of control; the T/C under setting [1] is 105 % of control; the T/C under setting [2] was 101 % of control; the T/C under setting [3] is 108 % of control and 106 % of control; the T/C under setting [4] is 121 % of control and 104 % of control.
For the compound `Cc1c2oc3c(C)ccc(C(=O)NC4C(=O)NC(C(C)C)C(=O)N5CCCC5C(=O)N(C)CC(=O)N(C)C(C)C(=O)OC4C)c3nc-2c(C(=O)NC2C(=O)NC(C(C)C)C(=O)N3CCCC3C(=O)N(C)CC(=O)N(C)C(C)C(=O)OC2C)c(N)c1=O` (stereo not given) (I: TVP[Sar][NMeA] / II: TVP[Sar][NMeA]; ester I:1-I:C, II:1-II:C; linker I:N-II:N via Actinocin(9to1); configuration not given here), the T/C is, setting by setting: (dose: 0.25 mg/kg/injection, schedule: Q04DX003 (ip), vehicle: saline + alcohol) 116 % of control; (dose: 0.5 mg/kg/injection, schedule: Q04DX003 (ip), vehicle: saline + alcohol) 118 % of control; (dose: 1.0 mg/kg/injection, schedule: Q04DX003 (ip), vehicle: saline + alcohol) 112 % of control and 113 % of control; (dose: 2.0 mg/kg/injection, schedule: Q04DX003 (ip), vehicle: saline + alcohol) 116 % of control and 104 % of control; (dose: 4.0 mg/kg/injection, schedule: Q04DX003 (ip), vehicle: saline + alcohol) 115 % of control.
